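In this assay, cells in 96-well plates receive the compound at five concentrations for 48 hours. Endpoints are linearly interpolated between the surrounding concentrations. GI50 = concentration required for 50% inhibition of growth. TGI: total growth inhibition.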

From PubChem BioAssay (NCI) come the findings set out here.

Test systems include COLO 205 colon; MCF7 breast; PC-3 prostate; HCC-2998 colon; SN12C renal; SK-MEL-28 melanoma; KM12 colon; EKVX NSCLC; HL-60(TB) leukemia; OVCAR-4 ovarian.
Holding throughout (experiment): NCI anticancer screen, dose series, 48 h

As for `N#CC1C=Cc2c(ccc3ccccc23)N1C(=O)c1ccccc1` (centres undefined), the GI50 with COLO 205 colon is 251 nM; in the assay on MCF7 breast, 41.3 nM; in the assay on PC-3 prostate, 333 nM; with HCC-2998 colon it was 430 nM; in the assay with SN12C renal it was 1150 nM; with SK-MEL-28 melanoma, 723 nM. Further, the GI50 in the assay with KM12 colon was 141 nM; in the assay on EKVX NSCLC, 310 nM; in the assay on HL-60(TB) leukemia, 171 nM; in the assay on OVCAR-4 ovarian, 1470 nM. For the same molecule, the TGI with COLO 205 colon is 0.706 µM; in the assay with MCF7 breast, over 100 µM; in the assay on PC-3 prostate, over 100 µM; in the assay with HCC-2998 colon it was over 47.6 µM; in the assay with SN12C renal, over 100 µM; with SK-MEL-28 melanoma it was over 100 µM. The TGI was 3.98 µM in the assay with KM12 colon and over 100 µM in the assay on OVCAR-4 ovarian.

For `Cc1cc(Nc2cc(N)ncn2)c(=O)n2c1C(=O)NC21CCCCC1`, the GI50 with COLO 205 colon, in the assay with MCF7 breast, in the assay on PC-3 prostate, in the assay with HCC-2998 colon, in the assay on SN12C renal and in the assay on SK-MEL-28 melanoma was over 100000 nM each time. In addition, the GI50 in the assay with KM12 colon, with EKVX NSCLC, in the assay on HL-60(TB) leukemia and in the assay on OVCAR-4 ovarian was over 100000 nM in each case. Further, the TGI in the assay on COLO 205 colon, in the assay with MCF7 breast, in the assay on PC-3 prostate, in the assay on HCC-2998 colon, in the assay with SN12C renal and in the assay with SK-MEL-28 melanoma was over 100 µM each time. Besides, the TGI in the assay on KM12 colon, in the assay on EKVX NSCLC, in the assay on HL-60(TB) leukemia and with OVCAR-4 ovarian was over 100 µM throughout.

Regarding `COc1ccc(Cn2cc3c(c2-c2cc(OC)c(OC)c(OC)c2)CCc2cnoc2-3)cc1`, the GI50 is 163 nM in the assay on MCF7 breast; 473 nM in the assay on PC-3 prostate; 557 nM with HCC-2998 colon; 715 nM with SN12C renal; 517 nM with SK-MEL-28 melanoma; 281 nM in the assay with KM12 colon. Besides, the GI50 in the assay with EKVX NSCLC is 397 nM; in the assay with HL-60(TB) leukemia, 204 nM; in the assay with OVCAR-4 ovarian, 768 nM. For the same molecule, the TGI in the assay with MCF7 breast was over 100 µM; in the assay on PC-3 prostate, over 100 µM; with HCC-2998 colon it was over 100 µM; in the assay with SN12C renal, over 100 µM; in the assay on SK-MEL-28 melanoma it was over 100 µM; with KM12 colon, over 24.1 µM. The values for the TGI in the assay on EKVX NSCLC, with HL-60(TB) leukemia and with OVCAR-4 ovarian were over 100 µM, 0.647 µM and over 100 µM, respectively.

As for `C=CC1=C(C)C2=NC1=CC1=NC(=C(CC)/C1=C\O)C=C1N=C3C(=C1C)C(=O)[C@H](C(=O)OC)C3=C1NC(=C2)[C@@H](C)[C@@H]1CCC(=O)O`, the TGI with COLO 205 colon, in the assay with MCF7 breast, in the assay on PC-3 prostate, with HCC-2998 colon, in the assay with SN12C renal and in the assay with SK-MEL-28 melanoma was over 100 µM in each case. Also, the TGI in the assay with KM12 colon is over 100 µM; with EKVX NSCLC, over 100 µM; with HL-60(TB) leukemia it was 92.3 µM; with OVCAR-4 ovarian, over 100 µM.

With `O=[N+]([O-])c1cccc2nccc(NCCCO)c12`, the TGI in the assay with COLO 205 colon was 15.8 µM; in the assay with MCF7 breast it was 27.9 µM; in the assay with PC-3 prostate, 69.8 µM; with HCC-2998 colon, 26 µM; in the assay with SN12C renal, 28 µM; in the assay on SK-MEL-28 melanoma it was 26.5 µM. The TGI in the assay with KM12 colon stood at 24.6 µM; with EKVX NSCLC, 23.2 µM; with HL-60(TB) leukemia, 36.8 µM; with OVCAR-4 ovarian, 23.8 µM.

As to `COc1cc(NC(=O)C2=C(N3CCOCC3)/C(=C/c3ccc(Cl)cc3)CC2)cc(OC)c1OC`, the GI50 with COLO 205 colon is over 100000 nM; in the assay with MCF7 breast, over 100000 nM; with PC-3 prostate it was 6060 nM; in the assay on HCC-2998 colon, 38900 nM; in the assay with SN12C renal, 94300 nM; in the assay with SK-MEL-28 melanoma, over 100000 nM. The GI50 with KM12 colon is over 100000 nM; in the assay on EKVX NSCLC it was 24900 nM; in the assay with HL-60(TB) leukemia, over 100000 nM; with OVCAR-4 ovarian it was 4270 nM. The TGI in the assay on COLO 205 colon, in the assay on MCF7 breast, in the assay on PC-3 prostate, in the assay on HCC-2998 colon, with SN12C renal and in the assay with SK-MEL-28 melanoma was over 100 µM throughout. Further, the TGI in the assay with KM12 colon, in the assay with EKVX NSCLC, in the assay on HL-60(TB) leukemia and in the assay with OVCAR-4 ovarian was over 100 µM each time.

As to `CCCCCCCCCCCCCCCC1=NC(C)(C)CN1C(C)C`, the GI50 in the assay with COLO 205 colon was 1500 nM; in the assay on MCF7 breast, 1550 nM; with PC-3 prostate it was 1370 nM; in the assay with HCC-2998 colon it was 1350 nM; with SN12C renal, 1380 nM; in the assay on SK-MEL-28 melanoma, 1640 nM. Besides, the GI50 in the assay with KM12 colon is 1330 nM; in the assay on EKVX NSCLC it was 1740 nM; in the assay on HL-60(TB) leukemia, 910 nM; in the assay with OVCAR-4 ovarian, 2040 nM. Moreover, the TGI with COLO 205 colon was 2.83 µM; in the assay on MCF7 breast it was 3.01 µM; in the assay with PC-3 prostate it was 3.68 µM; in the assay with HCC-2998 colon, 2.64 µM; with SN12C renal it was 2.89 µM; in the assay with SK-MEL-28 melanoma, 3 µM. The TGI with KM12 colon stood at 2.6 µM; with EKVX NSCLC, 4.24 µM; in the assay on HL-60(TB) leukemia it was 2.4 µM; in the assay with OVCAR-4 ovarian it was 6.37 µM.

In the case of `C/C(=N\NC(=S)N(C)C)c1ccccn1`, the TGI worked out at 13.4 µM in the assay on MCF7 breast; 15.9 µM in the assay with PC-3 prostate; 15 µM with HCC-2998 colon; 11.2 µM in the assay on SN12C renal; 20.6 µM in the assay with SK-MEL-28 melanoma; 20 µM with KM12 colon. Also, the TGI with EKVX NSCLC was 3.07 µM; in the assay on OVCAR-4 ovarian it was 10.4 µM. The GI50 in the assay on PC-3 prostate was 132 nM; in the assay on SN12C renal, 43.6 nM; in the assay with KM12 colon it was 220 nM; with EKVX NSCLC, 143 nM; in the assay with HL-60(TB) leukemia, 0.325 nM.
